Data as given in patent US10160771B2, “Hepatitis C virus inhibitors and uses thereof in preparation of drugs” (priority 2014, dated 2018).

Experiments:
[1] = tested on: HCV genotype 1a (HCV-1a) replicon cells; assay: HCV genotype 1a replicon luciferase assay (EC50); format: cell-based, hepatitis C virus genotype 1a (H77 clone); settings: Hepatitis C virus, 72 h, 3 days, luciferase (Bright-Glo)
Method: (§1) The EC50 and CC50 values of anti-HCV compounds were determined by HCV genotype 1a (HCV-1a) and 1B (HCV-1b) stable transfer replication (replicon) cells. The source of genotype 1a replicon is H77 clones containing K1691R, K2040R and S2204I adaptive mutations. The source of genotype 1b replicon is Con1 clones containing E1202G, T1280I and K1846T adaptive mutations.
(§2) HCV 1a (HCV-1a) and 1b (HCV-1b) gene subtype replicon system contains the related HCV gene subtype non structural protein gene, G418 resistance gene NEO and luciferase gene, which results in that HCV related protein and luciferase can be stably expressed in cells. By detecting the level of expression of luciferase gene, the level of HCV replication can be determined. Therefore, the system is used as a model for screening the activity of anti-HCV compound in vitro.
(§3) HCV Replicon Cell Lines: HCV-1a and HCV-1b Cells
(§4) The compound powder was dissolved in 100% DMSO. Then the compound was diluted 5 times with 6 points, and added into the cell plate with Echo liquid handler. Ensure the final concentration of DMSO was 0.5%. Each compound was tested in double holes. Maximum initial concentration was 100, 10 or 1 nM, 5 times dilution, 6 points.
(§5) b) Cell Culture (HCV-1a or HCV-1b Replicon Cell):
(§6) 1) absorbing the culture supernatant of the cell culture and washing the cells with 10 mL PBS.
(§7) 2) adding preheated pancreatin to the washed cell culture flasks, rotating culture bottle to make the bottom of the culture bottle uniformly covered by pancreatin, then placed into 37° C., 5% CO2 incubator to digest.
(§8) 3) suspending cells in each T150 culture flask with 10-15 mL culture medium, absorbing 0.1 mL liquid and diluting 2 times by trypan blue solution as counted.
(§9) 4) diluting cells to 8×10^4/mL with the culture medium, adding the diluted cells into the compound-containing 96-well plate (Greiner, Cat.#655090) (100 μL/well, 8000 cells/well) with automatic liquid separator (Thermo Scientific). Then place into a 37° C., 5% CO2 incubator for 3 days. Cell control well: no compound, only containing 0.5% DMSO.
(§10) 6) then adding luciferase luminescence substrate Bright-Glo, after incubation for 5 minutes, detecting the luciferase activity by chemical luminescence detection system Envison (wavelength>700 nm); analyzing the anti-HCV inhibitory activity of the compounds according to luciferase data, which was used to calculate EC50 values.
(§11) The EC50 or CC50 values were obtained by nonlinear fitting analysis on inhibition percentage (inh %) data with GraphPad Prism software.

[2] = tested on: HCV genotype 1b (HCV-1b) replicon cells; assay: HCV genotype 1b replicon luciferase assay (EC50); format: cell-based, hepatitis C virus genotype 1b (Con1 clone); settings: Hepatitis C virus, 72 h, 3 days, luciferase (Bright-Glo)
Method: as §1, §2, §3, §4, §5, §6, §7, §8, §9, §10, §11

[3] = Cell Titer-fluor cell activity assay in HCV-1b replicon cells (CC50); format: cell-based
Method: as §1, §3, §4, §5, §6, §7, §8, §9
5) adding chemiluminescent substrate Cell Titer-fluor to the cell well, after incubation for 30 minutes, detecting the signal by chemiluminescence detection system Envison (Ex at 405 nm and read at 515 nm). The effect of the compounds on the activity of HCV replicon cells was analyzed according to the luminescence data, which was used to calculate the CC50 values.
as §11

Structure (SMILES): COC(=O)N[C@H](C(=O)N1CCC[C@@H]1c1[nH]c(-c2ccc(-c3ccc(-c4cnc([C@@H]5CCCN5C(=O)[C@@H](NC(=O)OC)C(C)C)[nH]4)cc3)cc2)c2c1CCCO2)C(C)C [AG_114_B]
- EC50 [1]: 10 to 100 nM
- EC50 [2]: 0.101 to 1 nM
- CC50 at 3 days [3]: > 1 nM

Structure (SMILES): COC(=O)N[C@H](C(=O)N1CCCC1c1ccc(-c2ccc(-c3ccc(-c4cnc([C@@H]5COC(C)(C)N5C(=O)[C@@H](NC(=O)OC)C(C)C)[nH]4)cc3)cc2)[nH]1)C(C)C (some centres unmarked) [AG_022]
- EC50 [1]: 10 to 100 nM
- EC50 [2]: 0.101 to 1 nM
- CC50 at 3 days [3]: > 10 nM

Structure (SMILES): COC(=O)N[C@H](C(=O)N1CCC[C@H]1c1ncc(-c2ccc(-c3ccc(-c4cnc(C5C6CCC(C6)[C@@H]5C(=O)NCc5ccncc5)[nH]4)cc3)cc2)[nH]1)[C@@H](C)OC (some centres unmarked) [AA_248_B]
- EC50 [1]: 10 to 100 nM
- EC50 [2]: 0.101 to 1 nM
- CC50 at 3 days [3]: > 1 nM

Structure (SMILES): COC(=O)N[C@H](C(=O)N1CCC[C@H]1c1[nH]c(-c2ccc(-c3ccc(-c4cnc([C@@H]5CCCN5C(=O)[C@@H](NC(=O)OC)C(C)(C)C)[nH]4)cc3)cc2)c2c1CCC2)C(C)C [AG_093]
- EC50 [1]: 10 to 100 nM
- EC50 [2]: 0.001 to 0.1 nM
- CC50 at 3 days [3]: > 1 nM

Structure (SMILES): COC(=O)N[C@H](C(=O)N1CCC[C@H]1c1ncc(-c2ccc(-c3ccc(-c4cnc([C@H]5C6CCC(C6)[C@@H]5C(=O)NCc5cccs5)[nH]4)cc3)cc2)[nH]1)C(C)C (some centres unmarked) [AA_196_A]
- EC50 [1]: 1 to 10 nM
- EC50 [2]: 0.001 to 0.1 nM
- CC50 at 3 days [3]: > 1 nM

Structure (SMILES): COC(=O)N[C@H](C(=O)N1CC2(CCCC2)C[C@H]1c1ncc(-c2ccc(-c3ccc(-c4[nH]c([C@@H]5CCCN5C(=O)[C@@H](NC(=O)OC)[C@@H](C)OC)c5c4COC5)cc3)cc2)[nH]1)[C@@H](C)OC [AG_111]
- EC50 [1]: 0.101 to 1 nM
- EC50 [2]: 0.001 to 0.1 nM
- CC50 at 3 days [3]: > 1 nM

Structure (SMILES): COC(=O)NC(C(=O)N1CCC[C@H]1c1[nH]c(-c2ccc(-c3ccc(-c4cnc([C@@H]5CCCN5C(=O)[C@@H](NC(=O)OC)[C@@H](C)OC)[nH]4)cc3)cc2)c2c1CCC2)[C@@H](C)OC (some centres unmarked) [AG_068_A]
- EC50 [1]: 1 to 10 nM
- EC50 [2]: 0.001 to 0.1 nM
- CC50 at 3 days [3]: > 1 nM

Structure (SMILES): COC(=O)N[C@H](C(=O)N1CCC[C@H]1c1ncc(-c2ccc(-c3ccc(-c4cnc([C@@H]5[C@H]6CC[C@H](C6)[C@H]5C(=O)NCc5cncnc5)[nH]4)cc3)cc2)[nH]1)C(C)C [AA_201_ENDOA2]
- EC50 [1]: 0.101 to 1 nM
- EC50 [2]: 0.001 to 0.1 nM
- CC50 at 3 days [3]: > 1 nM

Structure (SMILES): COC(=O)N[C@H](C(=O)N1CCC[C@@H]1c1[nH]c(-c2ccc(-c3ccc(-c4cnc([C@@H]5CCCN5C(=O)[C@@H](NC(=O)OC)[C@@H](C)OC)[nH]4)cc3)cc2)c2c1COC2)C(C)OC (some centres unmarked) [AG_080_B]
- EC50 [1]: 1 to 10 nM
- EC50 [2]: 0.101 to 1 nM
- CC50 at 3 days [3]: > 5 nM

Structure (SMILES): COC(=O)N[C@H](C(=O)N1CCC[C@H]1c1ncc(-c2ccc(-c3ccc(-c4cnc([C@H]5C6CCC(C6)[C@@H]5C(=O)NCc5cccnc5C(C)C)[nH]4)cc3)cc2)[nH]1)C(C)C (some centres unmarked) [AA_215_A]
- EC50 [1]: 10 to 100 nM
- EC50 [2]: 0.001 to 0.1 nM
- CC50 at 3 days [3]: > 1 nM

Structure (SMILES): COC(=O)N[C@H](C(=O)N1CCC[C@H]1c1ncc(-c2ccc(-c3ccc(-c4cnc([C@H]5C6CCC(C6)[C@@H]5C(=O)NCc5ccc(F)nc5)[nH]4)cc3)cc2)[nH]1)C(C)C (some centres unmarked) [AA_214_A]
- EC50 [1]: 1 to 10 nM
- EC50 [2]: 0.001 to 0.1 nM
- CC50 at 3 days [3]: > 1 nM

Structure (SMILES): COC(=O)N[C@H](C(=O)N1CCC[C@H]1c1ncc(-c2ccc(-c3ccc(-c4cnc(C5C6CCC(C6)[C@@H]5c5nc(-c6cccnc6)c[nH]5)[nH]4)cc3)cc2)[nH]1)C(C)C (some centres unmarked) [AA_242]
- EC50 [1]: 10 to 100 nM
- EC50 [2]: 0.101 to 1 nM
- CC50 at 3 days [3]: > 1 nM

Structure (SMILES): COC(=O)N[C@H](C(=O)N1CCC[C@H]1c1ncc(-c2ccc(-c3ccc(-c4cnc(C5C6CCC(C6)[C@@H]5C(=O)NNc5cccnc5)[nH]4)cc3)cc2)[nH]1)[C@@H](C)OC (some centres unmarked) [AA_258_B]
- EC50 [1]: 10 to 100 nM
- EC50 [2]: 1 to 10 nM
- CC50 at 3 days [3]: > 1 nM

Structure (SMILES): O=C(NCc1cccnc1)[C@H]1C2CCC(C2)C1c1ncc(-c2ccc(-c3ccc(-c4cnc([C@@H]5C6CCC(C6)[C@H]5C(=O)NCc5cccnc5)[nH]4)cc3)cc2)[nH]1 (some centres unmarked) [AA_180]
- EC50 [1]: 10 to 100 nM
- EC50 [2]: 1 to 10 nM
- CC50 at 3 days [3]: > 10 nM

Structure (SMILES): COC(=O)NC(C(=O)C1CCCCC1c1ncc(-c2ccc(-c3ccc(-c4[nH]c([C@@H]5CCCN5C(=O)[C@@H](NC(=O)OC)C(C)C)c5c4CCC5)cc3)cc2)[nH]1)C(C)C (some centres unmarked) [AA_100]
- EC50 [2]: 10 to 100 nM
- CC50 at 3 days [3]: > 10 nM

Structure (SMILES): COC(=O)N[C@H](C(=O)N1[C@H](c2ncc(-c3ccc(-c4ccc5cc(-c6cnc(C7CCCC[C@H]7C(=O)N(NC(=O)OC)C(C)C)[nH]6)ccc5c4)cc3)[nH]2)COC1(C)C)C(C)C (some centres unmarked) [AA_072]
- EC50 [2]: 10 to 100 nM
- CC50 at 3 days [3]: > 10 nM

Structure (SMILES): COC(=O)N[C@H](C(=O)N1CCC[C@H]1c1ncc(-c2ccc(-c3ccc(-c4cnc(C5CCCC5C(=O)N(NC(=O)OC)C(C)C)[nH]4)cc3)cc2)[nH]1)C(C)C (some centres unmarked) [AA_008]
- EC50 [2]: 1 to 10 nM
- CC50 at 3 days [3]: > 100 nM

Structure (SMILES): COC(=O)N[C@H](C(=O)N1CC2(C[C@H]1c1ncc(-c3ccc(-c4ccc5cc(-c6cnc(C7CCCC[C@H]7C(=O)N(NC(=O)OC)C(C)C)[nH]6)ccc5c4)cc3)[nH]1)OCCO2)C(C)C (some centres unmarked) [AA_073]
- EC50 [2]: 1 to 10 nM
- CC50 at 3 days [3]: > 10 nM

Structure (SMILES): COC(=O)NN(C(=O)[C@@H]1CCCCC1c1ncc(-c2ccc3cc(-c4ccc(-c5cnc(C6CCCC[C@@H]6C(=O)N(CC(=O)NC6CC6)C(C)C)[nH]5)cc4)ccc3c2)[nH]1)C(C)C (some centres unmarked) [AA_075]
- EC50 [2]: 10 to 100 nM
- CC50 at 3 days [3]: > 10 nM

Structure (SMILES): COC(=O)NC(C(=O)N1CCCC1c1[nH]c(-c2ccc(-c3ccc(-c4cnc(C5CCCC[C@@H]5C(=O)N(NC(=O)OC)C(C)C)[nH]4)cc3)cc2)c2c1CCC2)C1CCOCC1 (some centres unmarked) [AL_003]
- EC50 [2]: 10 to 100 nM
- CC50 at 3 days [3]: > 10 nM

Structure (SMILES): COC(=O)NC(C(=O)N1CCCC1c1ncc(-c2ccc3cc(-c4cnc(C5CCCC[C@H]5C(=O)N(NC(=O)OC)C(C)C)[nH]4)ccc3c2)[nH]1)C1CCOC1 (some centres unmarked) [AA_078]
- EC50 [2]: 10 to 100 nM
- CC50 at 3 days [3]: > 10 nM

Structure (SMILES): COC(=O)N[C@H](C(=O)N1CCC[C@H]1c1ncc(-c2ccc(-c3ccc(-c4cnc([C@@H]5CCCC[C@H]5C(=O)N(NC(=O)OC)C(C)C)[nH]4)cc3)cc2)[nH]1)C(C)C [AA_091_A]
- EC50 [2]: 1 to 10 nM
- CC50 at 3 days [3]: > 10 nM

Structure (SMILES): COC(=O)NN(C(=O)[C@H]1CCCCC1c1ncc(-c2ccc(-c3ccc4cc(-c5cnc(C6CCCC[C@H]6C(=O)N(NC(=O)OC)C(C)C)[nH]5)ccc4c3)cc2)[nH]1)C(C)C (some centres unmarked) [AA_074]
- EC50 [2]: 10 to 100 nM
- CC50 at 3 days [3]: > 10 nM

Structure (SMILES): COC(=O)N[C@H](C(=O)N1CCC[C@H]1c1ncc(-c2ccc(-c3ccc4cc(-c5cnc(C6CCCC[C@H]6C(=O)N(NC(=O)OC)C(C)C)[nH]5)ccc4c3)cc2)[nH]1)C(C)C (some centres unmarked) [AA_071]
- EC50 [2]: 1 to 10 nM
- CC50 at 3 days [3]: > 10 nM

Structure (SMILES): COC(=O)N[C@H](C(=O)N1CCC[C@H]1c1ncc(-c2ccc(-c3ccc(-c4cnc(C5CCCC[C@H]5C(=O)N(NC(=O)OC)C(C)C)[nH]4)cn3)cc2)[nH]1)C(C)C (some centres unmarked) [AA_108]
- EC50 [2]: 1 to 10 nM
- CC50 at 3 days [3]: > 10 nM

Structure (SMILES): COC(=O)N[C@H](C(=O)N1CCC[C@H]1c1ncc(-c2ccc(-c3ccc(-c4cnc(C5=C(C(=O)N(NC(=O)OC)C(C)C)CCCC5)[nH]4)cc3)cc2)[nH]1)C(C)C [AA_014]
- EC50 [2]: 1 to 10 nM
- CC50 at 3 days [3]: > 100 nM

Structure (SMILES): COC(=O)N[C@H](C(=O)N1CCC[C@H]1c1ncc(-c2ccc(-c3ccc(-c4cnc(C5CCCC[C@@H]5C(=O)N(NC(=O)OC)C(C)C)[nH]4)c(F)c3)cc2)[nH]1)C(C)C (some centres unmarked) [AA_118]
- EC50 [2]: 1 to 10 nM
- CC50 at 3 days [3]: > 10 nM
